Laboratory results reported in paper PMC4514850, “A Novel TGR5 Activator WB403 Promotes GLP-1 Secretion and Preserves Pancreatic β-Cells in Type 2 Diabetic Mice” (PLoS ONE, 2015).

Tests used:
[1] = system: db/db mice; test: pancreas histology (H&E, IHC) of treated db/db mice; type: in vivo
Description: Analysis of islet cell mass was performed using conventional methods. In brief, mice were sacrificed by cervical dislocation. The body part of the pancreas was rapidly excised, fixed in 10% neutral buffered formalin solution for 24 h and embedded in paraffin, then sectioned at 5 μm ready for hematoxylin and eosin (H&E) staining and immunohistochemistry staining (IHC). The latter was carried out using rabbit anti-insulin polyclonal antibody (Cat. no. 4590, 1:600) and rabbit anti-glucagon monoclonal antibody (Cat. no. 8233s, 1:200) from Cell Signaling Technology.
Fig 5 WB403 preserved the mass of pancreatic β-cells and normal distribution of α and β-cells. (A) H&E staining of pancreas from db/db mice, and statistical result. Islets were sized by the Image J analysis software on alternated pancreatic sections spaced each by 100 μm. (B) Immunohistochemical analysis of pancreatic sections by anti-insulin antibody or anti-glucagon antibody. (C) H&E staining of pancreas from HFD/STZ mice, and statistical result. Results are representative islets from each group. 1–5 in the column graph on the right represents normal mice, diabetic mice treated with vehicle, WB403 50 mg/kg, WB403 100 mg/kg, sitagliptin 100 mg/kg respectively (n = 5). *p<0.05, **p<0.01, ***p<0.001 vs. diabetes-vehicle group.

[2] = system: gallbladders of mice; test: gallbladder filling in normal mice; type: in vivo; conditions: 200 mg/kg ip, normal mice fasted overnight, gallbladders removed 30 min later, n = 10
Excerpt: (§1) Fig 1 WB403 activated TGR5 and promoted active GLP-1 secretion. (A) WB403 stimulated hTGR5 in CRE-luciferase report system at the concentration range of 1–20 μmol/l. (B) WB403 stimulated hTGR5 specific cAMP accumulation at the concentration range of 1–50 μmol/l. n = 3. **p<0.01, ***p<0.001 vs. DMSO (+TGR5) group. (C) The hTGR5 targeted CRE-luciferase activity of WB403 and ZY403. […] (D) Effect of WB403 and ZY403 on gallbladders of mice. Normal mice were fasted overnight and treated with compounds (200 mg/kg) or vehicle (DMSO) by ip injection. Gallbladders (GB) were removed 30 min later and volumes measured then normalized to body weight (B.W.). n = 10. **p<0.01 vs. vehicle group. (E) Structure of WB403 and ZY403. WB403 promoted GLP-1 secretion in NCI-H716 cells (F), primary enterocytes (G), and MIN6 cells (H). n = 3. *p<0.05, **p<0.01, ***p<0.001 vs. vehicle group. (I) WB403 promoted GLP-1 in ICR mice. n = 5. **p<0.01 vs. vehicle group. Values represent mean ± SEM.

[3] = biological target: T1, hTGR5 (Homo sapiens, UniProt Q8TDU6); test: human TGR5 CRE-luciferase assay in co-transfected 293T cells; type: cell-based
T1 construct: expressed in transfected cells; host or cells: 293T cells, transient transfection with pTGR5 (gift from Prof. Johan Auwerx)
T1 sequence (Q8TDU6 1-330): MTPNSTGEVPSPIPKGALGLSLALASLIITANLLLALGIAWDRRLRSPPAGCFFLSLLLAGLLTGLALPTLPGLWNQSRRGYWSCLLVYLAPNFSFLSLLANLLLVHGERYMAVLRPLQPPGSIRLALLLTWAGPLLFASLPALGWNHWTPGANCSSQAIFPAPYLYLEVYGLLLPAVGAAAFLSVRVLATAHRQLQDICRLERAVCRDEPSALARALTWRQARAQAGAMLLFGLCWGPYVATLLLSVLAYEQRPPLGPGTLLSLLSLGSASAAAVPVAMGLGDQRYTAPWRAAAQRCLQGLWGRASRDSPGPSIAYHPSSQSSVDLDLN
Description: For human TGR5 luciferase (luc) assay, 293T cells were co-transfected with pCRE-luc, pTGR5 (kind gift from Prof. Johan Auwerx, Ecole Polytechnique Fédérale de Lausanne, Lausanne, Switzerland) and pRenilla (Promega, USA). WB403 was added 5 h later. Cells were harvested after 16 h and subjected to luciferase analysis on Lumistar Optima chemiluminescent detector (BMG labtech, Germany). For cAMP testing, 293T cells transiently transfected with pTGR5 or pGPR119 (GeneCopoeia, USA) were washed by FBS-free DMEM, and stimulated with WB403 in FBS-free DMEM containing 3-isobutyl-1-methyl-xanthine (IBMX, Sigma). Cell lysates were collected 30 min later and used for cAMP ELISA assay. FLIPR Calcium 5 assay kit (Molecular Devices, USA) was used for calcium mobilization assay. 293-GPR40 stable cells (kindly provided by Prof. Naiming Zhou of Zhejiang University, Hanzhou, China) or 293 cells transient transfected with GPR120 were seeded at 50,000 cells per well in black-walled clear-bottomed 96-well plates (Costar). An equal volume of loading buffer containing Fluo 4-AM was added the following day and cells were incubated for 1 h before stimulated with compounds. Increase of the intracellular Ca^2+ concentration was monitored by Flexstation 3 system (Molecular Devices, USA).
as §1

[4] = system: NCI-H716 cells; test: active GLP-1 secretion in NCI-H716 cells; type: cell-based, human; conditions: 10 μmol/l, 30 min
Description: Endocrine differentiation was induced by seeding NCI-H716 cells in plates coated with Matrigel (Becton Dickinson). Cells were washed with RPMI-1640 medium without FBS and incubated in the same medium containing indicated compounds at 10 μmol/l. The condition medium was collected after 30 min. GLP-1 secretion in MIN6 or primary enterocytes was conducted similarly. To isolate primary enterocytes, ileum or colon was cut into 2 cm length, rinsed by PBS (pH7.2∼7.4) before dispersed in 10 mmol/l EDTA/PBS (pH7.4) for 15 min at room temperature, followed by pipetting up and down. Enterocytes were collected by filtration through a 70 μm cell strainer. To study the effect of WB403 on GLP-1 secretion in vivo, mice in group of three were fasted overnight and orally received 0, 50, 100 mg/kg of WB403 dispersed in 0.5% CMC with a DPP-4 inhibitor (5 mg/kg). There were 5 animals in each group. 2 g/kg glucose was administrated 30 min later and blood was collected 10 min after glucose challenge.
The GLP-1 (active) ELISA kit was purchased from Millipore, and insulin ELISA kit was from Mercodia. For quantitative determination of cAMP, a competitive enzyme immunoassay kit from R&D system was used. All immunoassays were performed according to manufacturers’ instructions.

[5] = system: TGR5; conditions: moderate bile acids; ref [22], [34]; cited from earlier work

N[C@@H](CC(=O)N1CCn2c(nnc2C(F)(F)F)C1)Cc1cc(F)c(F)cc1F [sitagliptin, sitagliptin phosphate, reference compound]
islet area vs vehicle ([1]; H&E, after 4-week treatment): bigger islet area as compared to the vehicle mice, though no significant difference was found
α-cell and β-cell distribution in islets ([1]; IHC anti-insulin / anti-glucagon): significantly reduced α-cell in the islet core area and restored the normal cell distribution pattern

CCc1cc(-c2nc(CCOCc3ccc(Br)cc3)cs2)ccn1 [ZY403]
gallbladder filling [2]: caused gallbladder filling
EC50 ([3]; CRE-luciferase, 293T cells, Fig 1C, read-out: EC50, hTGR5 targeted CRE-luciferase activity): 1.3 µM
TGR5 luciferase activity in primary screen (fold increase compared to DMSO control) ([3]; screen of 100 compounds, S1 Fig): highest luciferase activity
GLP-1 stimulation in NCI-H716 cells [4]: did not show a strong stimulation for GLP-1 activity

C[C@H](CCC(=O)O)[C@H]1CC[C@H]2[C@@H]3[C@H](O)C[C@@H]4C[C@H](O)CC[C@]4(C)[C@H]3C[C@H](O)[C@]12C [CA, cholicacid]
EC50 [5]: 7.72 µM
